Test results taken from ChEMBL document CHEMBL1681651, “A broad spectrum anticancer nucleoside with selective toxicity against human colon cells in vitro” (2011).

Legend:
Type in all cases: functional
NCI-H322M = assay: Growth inhibition of human NCI-H322M cells assessed as cell growth at 10 uM after 48 hrs by SRB assay; conditions: read-out: Activity
SF-295 = assay: Growth inhibition of human SF295 cells assessed as cell growth at 10 uM after 48 hrs by SRB assay; conditions: SF-295, 48 h, read-out: Activity
CAKI-1 [1] = assay: Growth inhibition of human Caki1 cells assessed as cell growth at 0.1 uM after 48 hrs by SRB assay; conditions: CAKI-1, 48 h, read-out: Activity
NCI-H522 = assay: Growth inhibition of human NCI-H522 cells assessed as cell growth at 1 uM after 48 hrs by SRB assay; conditions: NCI-H522, 48 h, read-out: Activity
NCI-H23 [2] = assay: Growth inhibition of human NCI-H23 cells after 48 hrs by […] growth inhibition assay; conditions: NCI-H23, 48 h
HCT-15 = assay: Growth inhibition of human HCT15 cells assessed as cell growth at 10 uM after 48 hrs by SRB assay; conditions: HCT-15, 48 h, read-out: Activity
M14 = assay: Growth inhibition of human M14 cells assessed as cell growth at 0.1 uM after 48 hrs by SRB assay; conditions: M14, 48 h, read-out: Activity
HCC 2998 = assay: Growth inhibition of human HCC2998 cells assessed as cell growth at 100 uM after 48 hrs by SRB assay; conditions: HCC 2998, 48 h, read-out: Activity
KM12 [3] = assay: Growth inhibition of human KM12 cells assessed as cell growth at 0.1 uM after 48 hrs by SRB assay; conditions: KM12, 48 h, read-out: Activity
MDA-MB-231 [4] = assay: Growth inhibition of human MDA-MB-231 cells assessed as cell growth at 1 uM after 48 hrs by SRB assay; conditions: MDA-MB-231, 48 h, read-out: Activity
ACHN = assay: Growth inhibition of human ACHN cells assessed as cell growth at 10 uM after 48 hrs by SRB assay; conditions: read-out: Activity
KM12 [5] = assay: Growth inhibition of human KM12 cells assessed as cell growth at 1 mM after 48 hrs by SRB assay; conditions: KM12, 48 h, read-out: Activity
SK-MEL-28 = assay: Growth inhibition of human SK-MEL-28 cells after 48 hrs by […] growth inhibition assay; conditions: SK-MEL-28, 48 h, read-out: LC50 (the source's name)
NCI-H226 = assay: Growth inhibition of human NCI-H226 cells assessed as cell growth at 10 uM after 48 hrs by SRB assay; conditions: NCI-H226, 48 h, read-out: Activity
786-0 = assay: Growth inhibition of human 786-0 cells assessed as cell growth at 1 mM after 48 hrs by SRB assay; conditions: 786-0, 48 h, read-out: Activity
EKVX [6] = assay: Growth inhibition of human EKVX cells assessed as cell growth at 0.1 uM after 48 hrs by SRB assay; conditions: read-out: Activity
RXF 393 [7] = assay: Growth inhibition of human RXF393 cells assessed as cell growth at 1 mM after 48 hrs by SRB assay; conditions: RXF 393, 48 h, read-out: Activity
KM12 [8] = assay: Growth inhibition of human KM12 cells assessed as cell growth at 10 uM after 48 hrs by SRB assay; conditions: KM12, 48 h, read-out: Activity
T47D = assay: Growth inhibition of human T47D cells assessed as cell growth at 1 mM after 48 hrs by SRB assay; conditions: read-out: Activity
A549 = assay: Growth inhibition of human A549 cells assessed as cell growth at 1 uM after 48 hrs by SRB assay; conditions: A549, 48 h, read-out: Activity
Malme-3M = assay: Growth inhibition of human MALME-3M cells assessed as cell growth at 10 uM after 48 hrs by SRB assay; conditions: read-out: Activity
COLO 205 = assay: Growth inhibition of human COLO205 cells assessed as cell growth at 1 mM after 48 hrs by SRB assay; conditions: COLO 205, 48 h, read-out: Activity
OVCAR-5 = assay: Growth inhibition of human OVCAR5 cells assessed as cell growth at 10 uM after 48 hrs by SRB assay; conditions: OVCAR-5, 48 h, read-out: Activity
HT-29 = assay: Growth inhibition of human HT-29 cells assessed as cell growth at 1 mM after 48 hrs by SRB assay; conditions: HT-29, 48 h, read-out: Activity
RXF 393 [9] = assay: Growth inhibition of human RXF393 cells assessed as cell growth at 0.1 uM after 48 hrs by SRB assay; conditions: RXF 393, 48 h, read-out: Activity
EKVX [10] = assay: Growth inhibition of human EKVX cells assessed as cell growth at 1 uM after 48 hrs by SRB assay; conditions: read-out: Activity
HCT-116 = assay: Growth inhibition of human HCT116 cells assessed as cell growth at 100 uM after 48 hrs by SRB assay; conditions: HCT-116, 48 h, read-out: Activity
SK-OV-3 = assay: Growth inhibition of human SKOV3 cells assessed as cell growth at 1 mM after 48 hrs by SRB assay; conditions: SK-OV-3, 48 h, read-out: Activity
HOP-62 = assay: Growth inhibition of human HOP62 cells assessed as cell growth at 10 uM after 48 hrs by SRB assay; conditions: HOP-62, 48 h, read-out: Activity
OVCAR-3 = assay: Growth inhibition of human OVCAR3 cells after 48 hrs by […] growth inhibition assay; conditions: OVCAR-3, 48 h
NCI-H23 [11] = assay: Growth inhibition of human NCI-H23 cells assessed as cell growth at 10 uM after 48 hrs by SRB assay; conditions: NCI-H23, 48 h, read-out: Activity
MDA-MB-231 [12] = assay: Growth inhibition of human MDA-MB-231 cells after 48 hrs by […] growth inhibition assay; conditions: MDA-MB-231, 48 h
CAKI-1 [13] = assay: Growth inhibition of human Caki1 cells assessed as cell growth at 10 uM after 48 hrs by SRB assay; conditions: CAKI-1, 48 h, read-out: Activity
SW-620 = assay: Growth inhibition of human SW620 cells assessed as cell growth at 10 uM after 48 hrs by SRB assay; conditions: SW-620, 48 h, read-out: Activity
[14] = read-out: LC50 (the source's name)
[15] = read-out: pLC50 (the source's name) (converted)

For `CNC(=O)NC[C@H]1O[C@@H](n2cnc3c(NC(=O)Nc4ccccc4)ncnc32)[C@H](O[Si](C)(C)C(C)(C)C)[C@@H]1O[Si](C)(C)C(C)(C)C`, the growth at 10 µM (NCI-H322M) was 105%, the growth at 10 µM (SF-295) was 111% and the growth at 0.1 µM (CAKI-1 [1]) was 103%. For the same compound, the growth at 1 µM (NCI-H522) was 90%, the GI50 (NCI-H23 [2]; read-out: GI50) was 3.17 µM and the CC50 (NCI-H23 [2]; [14]) was 86 µM. It also gave a TGI (NCI-H23 [2]; read-out: TGI) of 9.07 µM, a GI50 (NCI-H23 [2]; read-out: pGI50 (converted)) of 3.16 µM and a CC50 (NCI-H23 [2]; [15]) of 85.1 µM. It also gave a TGI (NCI-H23 [2]; read-out: pTGI (converted)) of 9.12 µM, a growth at 10 µM (HCT-15) of 100% and a growth at 0.1 µM (M14) of 101%. It also gave a growth at 100 µM (HCC 2998) of -79%, a growth at 0.1 µM (KM12 [3]) of 104% and a growth at 1 µM (MDA-MB-231 [4]) of 109%. It also gave a growth at 10 µM (ACHN) of 105%, a growth at 1000 µM (KM12 [5]) of -74% and a CC50 (SK-MEL-28) of 28.3 µM. The growth at 10 µM (NCI-H226) was 105%, the growth at 1000 µM (786-0) was -80% and the growth at 0.1 µM (EKVX [6]) was 105%. It also gave a growth at 1000 µM (RXF 393 [7]) of -77%, a growth at 10 µM (KM12 [8]) of 107% and a growth at 1000 µM (T47D) of -32%. It also gave a growth at 1 µM (A549) of 98%, a growth at 10 µM (Malme-3M) of 96% and a growth at 1000 µM (COLO 205) of -94%. For the same compound, the growth at 10 µM (OVCAR-5) was 103%, the growth at 1000 µM (HT-29) was -100% and the growth at 0.1 µM (RXF 393 [9]) was 98%. For the same compound, the growth at 1 µM (EKVX [10]) was 111%, the growth at 100 µM (HCT-116) was -59% and the growth at 1000 µM (SK-OV-3) was 8%. The growth at 10 µM (HOP-62) was 105%, the GI50 (OVCAR-3; read-out: GI50) was 2.6 µM and the CC50 (OVCAR-3; [14]) was 98.2 µM. It also gave a TGI (OVCAR-3; read-out: TGI) of 5.54 µM, a GI50 (OVCAR-3; read-out: pGI50 (converted)) of 2.63 µM and a CC50 (OVCAR-3; [15]) of 97.7 µM. For the same compound, the TGI (OVCAR-3; read-out: pTGI (converted)) was 5.5 µM, the growth at 10 µM (NCI-H23 [11]) was 105% and the GI50 (MDA-MB-231 [12]; read-out: GI50) was 2.61 µM. For the same compound, the CC50 (MDA-MB-231 [12]; [14]) was 28.3 µM, the TGI (MDA-MB-231 [12]; read-out: TGI) was 6.12 µM and the GI50 (MDA-MB-231 [12]; read-out: pGI50 (converted)) was 2.63 µM. For the same compound, the CC50 (MDA-MB-231 [12]; [15]) was 28.2 µM, the TGI (MDA-MB-231 [12]; read-out: pTGI (converted)) was 6.17 µM and the growth at 10 µM (CAKI-1 [13]) was 96%.

For `CNC(=O)OC[C@H]1O[C@@H](n2cnc3c(NC(=O)Nc4ccccc4)ncnc32)[C@H](O[Si](C)(C)C(C)(C)C)[C@@H]1O[Si](C)(C)C(C)(C)C`, the growth at 10 µM (NCI-H322M) was 118%, the growth at 10 µM (SF-295) was 108% and the growth at 10 µM (HCT-15) was 103%. The growth at 10 µM (ACHN) was 94.6%, the growth at 10 µM (NCI-H226) was 93.2% and the growth at 10 µM (KM12 [8]) was 110%. The growth at 10 µM (Malme-3M) was 114%, the growth at 10 µM (OVCAR-5) was 120% and the growth at 10 µM (HOP-62) was 104%. For the same compound, the growth at 10 µM (SW-620) was 98%, the growth at 10 µM (NCI-H23 [11]) was 98% and the growth at 10 µM (CAKI-1 [13]) was 106%.
